Laboratory results as given in publication PMC9775191, “A Subset Screen of the Compounds Australia Scaffold Library Identifies 7-Acylaminodibenzoxazepinones as Potent and Selective Hits for Anti-Giardia Drug Discovery” (Biomedicines, 2022).

Test system: G. duodenalis BRIS/91/HEPU/1279
Assay: Primary Giardia screen at 10 µM (live-cell imaging, automated counting)
Assay type: cell-based, Giardia duodenalis
Conditions: for % Inhibition n=1 24h / % Inhibition n=1 48h: first singlicate assay; for % Inhibition n=2 24h / % Inhibition n=2 48h: re-assessment
Experimental: Each compound was assessed in singlicate, at a final concentration of 10 μM (0.4 μL of a 5 mM stock; diluted to a final volume of 200 μL in culture medium; 0.2% DMSO). […] Plates were incubated in sealed chambers filled with 3% O2, 5% CO2 in N2 and growth was assessed at 24 and 48 h using live cell imaging and automated counting as previously described. Growth inhibition was calculated by subtracting media only background counts and determining percentage growth relative to vehicle (0.2% DMSO) controls. The reliability of these assays was assessed by calculating Z’ factors for each plate as previously described.

| Structure (SMILES) | % Inhibition n=1 48h [%] | other results |
| --- | --- | --- |
| O=C(NCc1ccco1)c1cnn2c1N[C@@H](c1ccc(Br)cc1)C[C@H]2C(F)(F)F (relative stereo) [SN00783428] | 35.3 | Average % Inhibition 24h: 15.1%; % Inhibition n=1 24h: 27.8%; % Inhibition n=2 24h: 2.5%; Average % Inhibition 48h: 18.5%; % Inhibition n=2 48h: 1.8% |
| Cc1ccc([C@@H]2C[C@H](c3ccccc3)n3nnnc3N2)cc1 (relative stereo) [SN00783518] | 40.1 | Average % Inhibition 24h: 10.7%; % Inhibition n=1 24h: 21.3%; % Inhibition n=2 24h: 0.0%; Average % Inhibition 48h: 20.0%; % Inhibition n=2 48h: 0.0% |
| CC(=O)N1N=C2C3CCN(CC3)[C@@H]2[C@@H]1c1cccc2ccccc12 (relative stereo) [SN00783777] | 0.0 |  |
| COc1cccc([C@H]2C[C@@H](C(F)(F)F)n3ncc(C(=O)N4CCCCC4)c3N2)c1 (relative stereo) [SN00783803] | 0.0 |  |
| CCc1ccc(NC(=O)[C@@H]2c3cc(OC)c(OC)cc3C(=O)N3CCCC[C@@H]23)cc1 (relative stereo) [SN00784165] | 28.1 |  |
| O=C(NCc1ccccc1Cl)[C@H]1[C@H]2C(=O)N(Cc3cccs3)C[C@]23C=C[C@H]1O3 (relative stereo) [SN00784242] | 22.4 |  |
| CCCNC(=O)[C@@H]1[C@@H]2C=C[C@@]3(CN(Cc4ccccc4Cl)C(=O)[C@H]13)O2 (relative stereo) [SN00784246] | 16.0 |  |
| CCCN(C(=O)c1cccc(NC(=O)[C@H]2[C@@H]3C[C@@H]4[C@H]2C(=O)O[C@@H]4C3)c1)c1ccccc1F (relative stereo) [SN00785932] | 2.8 |  |
| Cc1ccc(S(=O)(=O)[C@H]2CS(=O)(=O)C[C@@H]2N2CCC(C(N)=O)CC2)cc1 (relative stereo) [SN00786616] | 0.0 |  |
| CSc1ccc(NC(=O)N2C[C@@H]3C[C@H]2C[C@@H]3NC(=O)c2cccs2)cc1 (relative stereo) [SN00800991] | 17.8 |  |
| C[C@@]1(O)CCN(C(=O)c2cccc(F)c2)C[C@H]1N1CCCC1 (relative stereo) [SN00801211] | 0.0 |  |
| CN(C[C@@]12CCC[C@H]1N(C)C(=O)CC2)C(=O)c1ccc2c(c1)OCO2 (relative stereo) [SN00801319] | 28.7 |  |
| CNC(=O)N1C[C@@H](CN(C)C)[C@@H](C2CCN(CCC(C)C)CC2)C1 (relative stereo) [SN00801505] | 0.0 |  |
| COc1ccc(-c2nc(CN3C(=O)C(=O)N(C(C)C)C3=O)cs2)cc1 [SN00769384] | 0.0 |  |
| Cc1oc(-c2ccccc2)nc1C(=O)N1CCN(S(=O)(=O)c2ccc(Br)s2)CC1 [SN00769595] | 23.5 |  |
| O=C(C1CCCN(c2cnccn2)C1)N1CCN(Cc2cccs2)CC1 (centres unmarked) [SN00769722] | 17.2 |  |
| CC(C)(C)OC(=O)N1CCN(C(=O)C2CCCNC2)CC1 (centres unmarked) [SN00769730] | 15.1 |  |
| CC(=O)c1c(C)[nH]c(C(=O)Nc2nc(-c3ccco3)c(-c3ccco3)s2)c1C [SN00769770] | 59.6 | Average % Inhibition 24h: 25.0%; % Inhibition n=1 24h: 21.9%; % Inhibition n=2 24h: 28.1%; Average % Inhibition 48h: 52.7%; % Inhibition n=2 48h: 45.9% |
| O=C(Nc1nc(-c2cc3ccccc3oc2=O)cs1)c1cccc(C(F)(F)F)c1 [SN00769798] | 0.0 |  |
| CC(NC(=O)C1CCOCC1)c1nc(-c2cccnc2)cs1 (centres unmarked) [SN00769908] | 0.0 |  |
| O=C(c1ccc(Cl)c(S(=O)(=O)NCC2CCCO2)c1)N1CC=C(c2ccccc2)CC1 (centres unmarked) [SN00769948] | 6.8 |  |
| O=C(C1CCN(S(=O)(=O)c2ccccc2)CC1)N1CC=C(c2ccccc2)CC1 [SN00769994] | 0.0 |  |
| CC(C)(C)C(=O)N1CCC(C(=O)N2CC=C(c3ccc(F)cc3)CC2)CC1 [SN00770003] | 0.0 |  |

| Structure (SMILES) | % Inhibition n=1 48h [%] | other results |
| --- | --- | --- |
| O=C(/C=C/c1cccc([N+](=O)[O-])c1)Nc1ccc2c(c1)nc1n2CCCCC1 [SN00770035] | 0.0 |  |
| c1ccc(-n2nnnc2N2CCN(C3CC3)CC2)cc1 [SN00770081] | 0.0 |  |
| Cc1ccccc1C(=O)N1CCN(C(=O)c2[nH]nc3ccccc23)CC1 [SN00770261] | 25.4 |  |
| CC(C)n1ncc2c(C(=O)N3CCC(NS(=O)(=O)c4cccs4)CC3)cc(C3CC3)nc21 [SN00770479] | 0.0 |  |
| CN1CCN(Cc2nc3ccccc3c(=O)n2Cc2nc(-c3cccc([N+](=O)[O-])c3)cs2)CC1 [SN00770541] | 11.4 |  |
| Cc1cc2n(CC(O)COc3ccccc3F)c(=O)c3ccccc3n2n1 (centres unmarked) [SN00770617] | 17.7 |  |
| Cc1csc(/C(=C\c2cc(C)n(-c3ccnn3C(C)C)c2C)CN)n1 [SN00770781] | 5.0 |  |
| NC(=O)c1cn(Cc2nc(-c3ccoc3)no2)nc1-c1ccccc1 [SN00770936] | 0.0 |  |
| c1cncc(-c2nc(Sc3nnnn3CC3CCCO3)c3ccccc3n2)c1 (centres unmarked) [SN00771230] | 11.8 |  |
| Cc1cc2nc(Sc3nnnn3CC3CCCO3)c3ccccc3n2n1 (centres unmarked) [SN00771233] | 16.5 |  |
| CCC1c2ccsc2CCN1C(=O)C1CCN(S(=O)(=O)c2ccc(Cl)c([N+](=O)[O-])c2)CC1 (centres unmarked) [SN00771236] | 27.8 |  |
| CC1(c2ccco2)NC(=O)N(CC(=O)c2ccccc2)C1=O (centres unmarked) [SN00771276] | 12.8 |  |
| CC1(c2ccco2)NC(=O)N(NC(=O)c2sc3ccccc3c2Cl)C1=O (centres unmarked) [SN00771283] | 16.0 |  |
| CCc1ccccc1Nc1nc(N)nc(CN2CCCN(S(=O)(=O)c3ccc(C)cc3)CC2)n1 [SN00771296] | 10.0 |  |
| COc1ccc(CN2CCCN(C(=O)c3cn4ccc(C)cc4n3)CC2)cc1 [SN00771379] | 0.0 |  |
| Cc1cc(C(=O)N2CCCN(c3cccnn3)CC2)c(C)n1C(C)C [SN00771426] | 0.0 |  |
| CCn1ccnc1CN1CCCN(C(=O)c2cnc(C)cn2)CC1 [SN00771476] | 10.9 |  |
| C/C=C/c1ccc(OCC(=O)N2CCCN(C(=O)C3CCCC3)CC2)c(OC)c1 [SN00771493] | 16.5 |  |
| CC(=O)N1CCCN(Cc2ncc(Cl)n2C)CC1 [SN00771536] | 46.7 |  |
| COC(=O)CNC(=O)c1cn(-c2ccc(C(F)(F)F)cn2)nn1 [SN00771716] | 0.0 |  |
| c1ccc2sc(N3CCCC3c3nnc4n3CCCCC4)nc2c1 (centres unmarked) [SN00771886] | 12.0 |  |
| Cn1ncc2c(NC3CCN(Cc4ccncc4)CC3)ncnc21 [SN00771916] | 0.0 |  |
| O=C(C(c1ccccc1)c1ccccc1)N1CCCC(c2nnc3n2CCCCC3)C1 (centres unmarked) [SN00771924] | 8.5 |  |

| Structure (SMILES) | % Inhibition n=1 48h [%] | other results |
| --- | --- | --- |
| COc1cccc(CCC(=O)N2CCCC(c3nnc4n3CCCCC4)C2)c1 (centres unmarked) [SN00771943] | 2.6 |  |
| CSc1ccc(Cl)c(C(=O)N2CCCN(C(=O)c3ccncc3)CC2)c1 [SN00771952] | 45.6 |  |
| O=C(COc1ccccc1)N1CCCN(c2cccnn2)CC1 [SN00772032] | 1.9 |  |
| Cc1ccc(N2CCCN(C(=O)CN(C)C3CC3)CC2)nn1 [SN00772050] | 11.9 |  |
| O=C(Nc1ccccc1)N1CCCC1CN1CCCCC1 (centres unmarked) [SN00772093] | 16.8 |  |
| O=C(NCc1ccc(F)cc1)N1CCCCC1c1nc(-c2ccccc2)no1 (centres unmarked) [SN00772110] | 0.0 |  |
| O=C(CCN1C(=O)CCC1=O)N1CCCC(N2CCCCCC2)C1 (centres unmarked) [SN00772233] | 7.1 |  |
| CC(=O)c1c(C)[nH]c(C(=O)N2CCCC2c2nc(-c3cccc(C(F)(F)F)c3)c[nH]2)c1C (centres unmarked) [SN00772247] | 17.0 |  |
| Cc1nn(C)c(N2CCN(C(C)c3nc4ccccc4s3)CC2)c1[N+](=O)[O-] (centres unmarked) [SN00772279] | 10.6 |  |
| Cc1nnc(CN2CCN(CC(O)COCc3ccco3)CC2)n1C (centres unmarked) [SN00772332] | 57.1 | Average % Inhibition 24h: 0.0%; % Inhibition n=1 24h: 0.0%; % Inhibition n=2 24h: 0.0%; Average % Inhibition 48h: 28.5%; % Inhibition n=2 48h: 0.0% |
| CCOC(=O)c1ccsc1NC(=O)CN1CCNC(=O)CC1c1ccccc1 (centres unmarked) [SN00772435] | 0.0 |  |
| CC(C)(C)NS(=O)(=O)c1ccc(N2CCC(c3nnc4n3CCC4)CC2)c([N+](=O)[O-])c1 [SN00772456] | 4.6 |  |
| Cn1ncc2c(=O)[nH]c(CN3CCCC3Cc3ccccc3)nc21 (centres unmarked) [SN00772513] | 21.0 |  |
| Cc1ccccc1C1CCCN1Cc1nc2c(cnn2C)c(=O)[nH]1 (centres unmarked) [SN00772523] | 56.4 | Average % Inhibition 24h: 0.0%; % Inhibition n=1 24h: 0.0%; % Inhibition n=2 24h: 0.0%; Average % Inhibition 48h: 28.2%; % Inhibition n=2 48h: 0.0% |
| Cc1ccc(S(=O)(=O)N2CCC[C@H]2C(=O)N2CCN(CC(=O)Nc3cccc(C)c3C)CC2)cc1 [SN00772546] | 7.6 |  |
| Cc1nc(C2CCN(CC(=O)NC(c3ccc(F)cc3)c3cccs3)CC2)n[nH]1 (centres unmarked) [SN00772581] | 24.6 |  |
| O=C(CCN1CCC(c2n[nH]c(C3CC3)n2)CC1)Nc1ccccc1 [SN00772586] | 28.6 |  |
| COC(=O)c1ccc(F)c(S(=O)(=O)NC2(c3nc(C)cs3)CCC2)c1 [SN00772601] | 27.1 |  |
| Cc1csc(C2(NC(=O)Nc3ccc4c(c3)CCO4)CCC2)n1 [SN00772607] | 20.7 |  |
| Cn1c(=O)c2cc(C(=O)NC3CCSC3=O)n(Cc3ccccc3)c2n(C)c1=O (centres unmarked) [SN00772623] | 25.0 |  |
| CCCCOC(=O)c1ccc(NC(=O)c2cc3c(=O)n(C)c(=O)n(C)c3n2CCC)cc1 [SN00772629] | 16.7 |  |
